Consider one compound from US7906488B2, “Sphingolipids in treatment and prevention of steatosis and of steatosis or of hepatotoxicity and its sequelae” (Nederlandse Organisatie Voor …, priority 2004, dated 2011).

The assay has as its system APOE*3Leiden mice. In words: Effect of dietary sphingolipids on plasma C and TG levels (0.1, 0.2, 0.4% in diet). The class given is in vivo. The note with it: 0.4% sphingolipid in diet, compared with 0.2%. The text has this: Sphingolipids: The three sphingolipids that represent the most abundant natural complex sphingolipid classes and the three of the simplest natural sphingolipids, the sphingoid bases that can be formed by enzymatic breakdown of complex sphingolipids in the intestine were used. Sphingomyelin (mainly N-palmitoyl-sphingosine-1-phosphocholine) from egg was obtained from Larodan Fine Chemicals (Stockholm, Sweden). Yeast-derived (semi)synthetic ceramide III (N-stearoyl-phytosphingosine), cerebroside (N-stearoyl-phytosphingosine-1-glucose) and phytosphingosine (PS) were from Cosmoferm BV (Delft, the Netherlands). Sphinganine and sphingosine were from Avanti Polar Lipids (Albaster, Ala.). Animals and diets: Heterozygous female APOE*3Leiden transgenic mice (Van Vlijmen et al. 1994. J. Clin. Invest 93:1403-1410.) (6 months old) were fed a Western-type diet (Hope Farms, Woerden, the Netherlands) containing 15% cocoa butter, 0.25% cholesterol, 1% corn oil, 40.5% sucrose, 20% acid casein, 10% corn starch and 5.95% cellulose (all w/w) for 5 weeks. The mice were allowed free access to food and water. Body weight and food intake were monitored weekly. In the first experiment (FIG. 2), the mice were randomized after these 5 weeks into 7 groups (n=6), based on plasma cholesterol, triglycerides, and body weight. Subsequently, the mice were fed for three weeks the same diet without or with 0.1% (w/w) phytosphingosine (PS), sphingosine, sphinganine, cerebroside, ceramide III, or sphingomyelin. […]
Plasma parameters: Tail blood samples were collected in EDTA-coated cups, or in paraoxon-coated capillaries to prevent lipolysis as described in Zambon et al. 1993 (Zambon et al. 1993. J. Lipid Res. 34:1021-1028). Plasma lipid parameters were determined using commercial kits for total cholesterol (C) Chol R1 from Roche Diagnostics, Mannheim, Germany), non-esterified free fatty acids (FFA) (NEFA-C; Wako chemicals, Neuss, Germany), Total triglycerides (TG) (Triglyceride GPO-Trinder; Sigma, St. Louis, Mo.), β-hydroxybutyrate (β-HB; Sigma) and ALAT (Reflotron GPT; Roche). Serum amyloid A (SAA) was measured by ELISA (Biosource, Nivelles, Belgium) and fibrinogen by sandwich ELISA, as described in Koopman et al., 2005 (Koopman et al. 2005. Fibrinol Proteol 11:19). […] Hepatic VLDL-TG production: The rate of hepatic VLDL-TG production, de novo apoB secretion, and VLDL composition were determined in overnight-fasted mice. […] After 30 min, the animals received a Triton WR1339 injection (Tyloxapol, Sigma; 500 mg/kg body weight in 100 μl saline) to prevent systemic lipolysis of newly-secreted hepatic VLDL-TG (Aalto-Setala et al. 1992. J. Clin. Invest 90:1889-1900.27) Blood samples were drawn at 0, 15, 30, 60, and 90 min after Triton WR1339 injection and plasma TG concentrations were determined. […]

`CCCCCCCCCCCCCC[C@@H](O)[C@@H](O)[C@@H](N)CO` [PS, phytosphingosine]: the “Plasma C” value is given as “decreased even more”.
